“Also recorded” adds a separate entry of the source.
Key:
[1] = tested on: spontaneous hypertensive rats; experiment: Experimental model of cerebral ischemia (tandem CCA/MCA occlusion), infarct volume; assay type: in vivo, rat; settings: listed as EPO
Procedure: Male spontaneous hypertensive rats (Charles River) weighing between 250-300 g were weighed and then anesthetized with ketamine (100 mg/ml)/xylazine (20 mg/ml) cocktail (1.2 ml/kg; i.p.). The level of anesthetic was assessed by corneal reflex (air puff to eye) and leg jerk in response to tail or foot pinch. Once the rat was anesthetized, it was placed on a small animal surgical board and restrained during the surgical procedure. The rat's body temperature was monitored continuously with a rectal probe and maintained at 37° C. with a homeostatic heating pad.
Rats were rendered ischemic by tandem occlusion of the left common carotid artery and the left middle cerebral artery for 2 h followed by 22 h of reperfusion using a modification of the technique described by Brint and co-workers (J. Cereb Blood Flow Metab 8:474-485, 1988). Specifically, the left CCA was isolated through an incision in the ventral surface of the neck. […]
Study I: EPO and Vehicle Delivered Via Osmotic Mini-Pump • […] prior to the onset of ischemia, an osmotic mini-pump (Model 1003D; Alza) filled with vehicle or EPO was placed between the scapula of the rat. […] Twenty-two hours later, the rats were evaluated for behavioral performance, a blood sample was collected for terminal plasma levels of EPO and then the rat was euthanized, brain removed, sectioned and stained for histological analysis.
Study II: EPO and Vehicle Delivered as a Single Intravenous Bolus Injection • On Day One, the rats were rendered ischemic as described above. […] Twenty-two hours later, the rats were evaluated for behavioral performance, a blood sample was collected for terminal plasma levels of EPO and then the rat was euthanized, brain removed, sectioned and stained for histological analysis. […]

[2] = tested on: rat cerebral cortical neurons; experiment: Glutamate toxicity assay in primary cortical cultures; assay type: cell-based; settings: pretreatment 24 h prior to 100 μM glutamate
From the text: Dissociated hippocampal and cortical cell cultures were established from embryonic day 18 rat fetuses as previously described (Mattson et al., 1994). Briefly, fetuses were removed via cesarean section from pregnant moms (Sprague-Dawley) anesthetized with halothane according to the AVMA Panel on Euthanasia. Pups were decapitated and the brains were removed and placed in HEPES-buffered Hank's Balanced Salt solution (HBSS; Gibco). The hippocampi and cortices were dissected out and pooled according to tissue-type. Tissue was trypsinized for 15 min (1 mg/ml trypsin-HBSS; Worthington), rinsed with fresh HBSS, incubated in trypsin inhibitor (1 mg/ml; Sigma) for 5 min, rinsed again with fresh HBSS and then triturated in 1 ml fresh HBSS with a fire-polished glass pipette. Dissociated cells were seeded at 30,000 cells/well onto poly-D-lysine coated 96-well plates (Collaborative BioScience). […]
Cortical cells were seeded at 200,000 cells/dish onto polyethylenimine-coated 35 mm culture dishes. […] Cell survival was measured by counting viable cells in each field pre- and post-experimental treatment. […] Data were expressed as percent of control (vehicle; mean±SD).

“rhEPO: purified, recombinant human EPO (rhEPO), currently formulated and distributed under the trademarks of EPREX, ERYPO, or PROCRIT” was tested, and the “infarct volume, Study I” value ([1]; 132 or 1321 U/day continuous iv infusion via osmotic mini-pump, started before ischemia) was “significantly reduced infarct volume; also recorded: protects against ischemic injury”, the “infarct volume, Study III” value ([1]; repeat iv bolus of 2500 U/kg at 15 min, 2 h, 4 h and 6 h post-occlusion) was “significant decrease in infarct volume; also recorded: protects against ischemic injury” and the “ischemic damage, Study II” value ([1]; single iv bolus 15 min post-occlusion at 1000, 2500 or 5000 U/kg) was “did not protect against ischemic damage; also recorded: does not protect against ischemic injury”. For the same substance, the “maximal increase of cell survival over parallel cultures treated with glutamate alone” value [2] was “approximately 200%” and the “neuronal survival after glutamate (in words)” value [2] was “significant increase in neuronal survival; also recorded: protects rat cerebral cortical neurons against glutamate toxicity”.

Source: patent publication US20090170759A1, “NEUROPROTECTIVE PEPTIDES” (priority 2007, published 2009)
